Where two headings read alike, the source gives them in different places.
Target: T1, delta opioid receptor (Mus musculus, UniProt P32300)
T1 construct: NG108-15 cell membranes were purchased from Applied Cell Sciences (Rockville, Md.); host or cells: NG108-15 cell membranes
Experiment: [35S]GTPγS binding assay in NG108-15 cell membranes (delta opioid functional assay), 200 nM screen
Assay type: biochemical
Conditions: NG108-15 cell membranes; for EC50 / GTPγS δ-RelEfficacy @200 nM: averages if tested more than once; for GTPγS δ-opioid receptor Rel Efficacy: relative efficacy from dose response; for GTPγS δ-RelEfficacy @200 nM: 200 nM test compound, relative to calculated max of SNC80 dose response curve

[1] = GTPγS δ-opioid receptor EC50 (μM)
[2] = read-out: GTPγS δ-opioid receptor EC50

T1 sequence (P32300 whole entry): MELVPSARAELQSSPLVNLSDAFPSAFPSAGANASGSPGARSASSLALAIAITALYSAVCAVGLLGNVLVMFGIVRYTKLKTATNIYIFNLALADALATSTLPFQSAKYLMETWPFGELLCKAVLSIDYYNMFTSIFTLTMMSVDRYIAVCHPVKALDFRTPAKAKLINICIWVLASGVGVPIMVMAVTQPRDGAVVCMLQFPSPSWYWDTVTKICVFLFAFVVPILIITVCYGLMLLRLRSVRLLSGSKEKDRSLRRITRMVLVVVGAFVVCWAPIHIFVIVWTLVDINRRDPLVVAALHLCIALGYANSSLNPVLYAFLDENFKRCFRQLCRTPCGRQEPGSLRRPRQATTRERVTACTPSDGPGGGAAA

Row | Compound | EC50 [1] | GTPγS δ-opioid receptor Rel Efficacy | GTPγS δ-RelEfficacy @200 nM | EC50 [2]
1 | COc1ccc(Oc2nc(-c3cncc(SC)c3)ncc2N[C@@H]2CCCNC2)cc1 [Cpd 254] | 0.151 µM | 0.928 |  | 
2 | O=C(c1cccc(Oc2nc(-c3cncc(F)c3)ncc2NC[C@@H]2CCCN2)c1)N1CCCC1 [Cpd 171] |  |  | 0.257 | 
3 | COc1ccc(Oc2nc(-c3cncc(C#N)c3)ncc2NCC2CNC2)cc1 [Cpd 215] |  | 1.002 | 0.674 | 0.128 µM
4 | CCc1ccc(Oc2nc(-c3cccnc3)ncc2NC[C@@H]2CCCN2)cc1 [Cpd 184] |  | 1.271 | 0.497 | 0.418 µM
5 | O=C(c1ccc(Oc2nc(-c3cncc(F)c3)ncc2NC[C@@H]2CCCN2)cc1)N1CCCC1 [Cpd 176] |  |  | 0.112 | 
6 | COc1ccc(Oc2nc(-c3cncc(C#N)c3)ncc2NCc2[nH]cnc2C)cc1 [Cpd 285, 5-{4-(4-Methoxy-phenoxy)-5-[(5-methyl-3H-imidazol-4-ylmethyl)-amino]-pyrimidin-2-yl}-nicotinonitrile] | 0.027 µM | 0.782 | 0.730 | 
7 | COc1ccc(Oc2nc(-c3cncc(C#N)c3)ncc2N2CC(CN)C2)cc1 [Cpd 331] |  | 0.928 | 0.764 | 0.108 µM
8 | COc1ccc(Oc2nc(-c3cccnc3)ncc2N[C@H]2CCC[C@@H](N)C2)cc1 [Cpd 321] | 0.005 µM | 1.022 |  | 
9 | CS(=O)(=O)Nc1ccc(Oc2nc(-c3cccnc3)ncc2NC[C@@H]2CCCN2)cc1 [Cpd 214] |  |  | 0.115 | 
10 | CCc1ccc(Oc2nc(-c3cncc(F)c3)ncc2NC[C@@H]2CCCN2)cc1 [Cpd 182] |  | 1.065 | 0.470 | 0.377 µM
11 | Cc1ccc(Oc2nc(-c3cncc(C#N)c3)ncc2NC[C@@H]2CCCN2)c(F)c1F [Cpd 189] |  |  | 0.375 | 
12 | COc1ccc(Oc2nc(-c3cncc(SC)c3)ncc2NCc2cnc[nH]2)cc1 [Cpd 289] |  |  | 0.402 | 
13 | O=C(Nc1ccc(Oc2nc(-c3cccnc3)ncc2NC[C@@H]2CCCN2)cc1)OCc1ccccc1 [Cpd 177, (4-{2-Pyridin-3-yl-5-[(pyrrolidin-2-(S)-ylmethyl)-amino]-pyrimidin-4-yloxy}-phenyl)-carbamic acid benzyl ester] |  | 1.389 | 0.511 | 0.255 µM
14 | COc1cncc(-c2ncc(NC[C@@H]3CCCN3)c(Oc3cccc(OC(C)=O)c3)n2)c1 [Cpd 250, Acetic acid 3-{2-(5-methoxy-pyridin-3-yl)-5-[(pyrrolidin-2-(S)-ylmethyl)-amino]-pyrimidin-4-yloxy}-phenyl ester] | 0.026 µM | 1.022 | 0.912 | 
15 | COc1ccc(Oc2nc(-c3cncc(SC)c3)ncc2N[C@@H]2CCC[C@H](N)C2)cc1 [Cpd 317] | > 1 µM |  |  | 
16 | COCCOc1ccc(Oc2nc(-c3cncc(SC)c3)ncc2NC[C@@H]2CCCN2)cc1 [Cpd 241] |  |  | 0.381 | 
17 | COc1ccc(Oc2nc(-c3cncc(C#N)c3)ncc2NCc2ncc[nH]2)cc1 [Cpd 284] | 0.055 µM | 0.609 | 0.600 | 
18 | COc1ccc(Oc2nc(-c3cncc(C#N)c3)ncc2NC2CC(N)C2)cc1 (stereo not shown) [Cpd 303] |  | 1.047 | 0.622 | 0.114 µM
19 | COc1ccc(Oc2nc(-c3cncc(CO)c3)ncc2NC[C@@H]2CCCN2)cc1 [Cpd 269, (5-{4-(4-Methoxy-phenoxy)-5-[(pyrrolidin-2-(S)-ylmethyl)-amino]-pyrimidin-2-yl}-pyridin-3-yl)-methanol] | 0.053 µM | 0.984 |  | 
20 | CN1CCN(C(=O)c2cccc(Oc3nc(-c4cncc(F)c4)ncc3NC[C@@H]3CCCN3)c2)CC1 [Cpd 174] |  |  | 0.205 | 
21 | Cc1cc(Oc2nc(-c3cncc(C#N)c3)ncc2NC[C@@H]2CCCN2)ccc1F [Cpd 218] |  | 0.960 | 0.642 | 0.353 µM
22 | CCN(CC)C(=O)c1ccc(Oc2nc(-c3cccnc3)ncc2NC[C@@H]2CCCN2)cc1 [Cpd 175] |  |  | 0.005 | 
23 | Cc1cccc(Oc2nc(-c3cccnc3)ncc2NC[C@@H]2CCCN2)c1 [Cpd 203] |  |  | 0.096 | 
24 | COc1ccc(Oc2nc(-c3cncc(OC)c3)ncc2NCc2cnc[nH]2)cc1 [Cpd 290] |  |  | 0.398 | 
25 | COc1ccc(Oc2nc(-c3cc(C)cnc3Cl)ncc2NC[C@@H]2CCCN2)cc1 [Cpd 268] | 0.081 µM | 1.023 |  | 
26 | COc1ccc(Oc2nc(-c3cccnc3)ncc2N2C[C@@H](C)N[C@@H](C)C2)cc1 [Cpd 359] | 0.034 µM | 0.709 |  | 
27 | Cc1ccc(Oc2nc(-c3cncc(F)c3)ncc2NC[C@@H]2CCCN2)cc1 [Cpd 178] |  | 1.239 | 0.578 | 0.3 µM

Row | Compound | EC50 [1] | GTPγS δ-opioid receptor Rel Efficacy | GTPγS δ-RelEfficacy @200 nM | EC50 [2]
28 | COc1ccc(Oc2nc(-c3cnc(F)c(C)c3)ncc2NC[C@@H]2CCCN2)cc1 [Cpd 262] |  | 0.957 |  | 0.037 µM
29 | CS(=O)(=O)Nc1ccc(Oc2nc(-c3cncc(F)c3)ncc2NC[C@@H]2CCCN2)cc1 [Cpd 213, N-(4-{2-(5-Fluoro-pyridin-3-yl)-5-[(pyrrolidin-2-(S)-ylmethyl)-amino]-pyrimidin-4-yloxy}-phenyl)-methanesulfonamide] |  |  | 0.079 | 
30 | COc1ccc(Oc2nc(-c3cccnc3)ncc2N2CCN(C)CC2)cc1 [Cpd 353, 4-(4-Methoxy-phenoxy)-5-(4-methyl-piperazin-1-yl)-2-pyridin-3-yl-pyrimidine] |  | 0.651 |  | 0.27 µM
31 | COc1ccc(Oc2nc(-c3cncc(C)c3)ncc2N2CC[C@@H](N)C2)cc1 [Cpd 352] | 0.079 µM | 0.967 |  | 
32 | COc1ccc(Oc2nc(-c3cnc(Cl)c(C)c3)ncc2NC[C@@H]2CCCN2)cc1 [Cpd 266] | 0.018 µM | 1.041 |  | 
33 | COc1ccc(Oc2nc(-c3cncc(C#N)c3)ncc2NC[C@@H]2CCCN2)cc1C [Cpd 204] | 0.026 µM | 0.982 | 0.911 | 
34 | COc1ccc(Oc2nc(-c3ccccc3)ncc2N2CCNCC2)cc1 [Cpd 324] |  | 1.045 | 0.519 | 0.428 µM
35 | COc1ccc(Oc2nc(-c3cccnc3)ncc2NCc2cnc[nH]2)cc1 [Cpd 288] |  |  | 0.428 | 
36 | Cc1cccc(Oc2nc(-c3cncc(F)c3)ncc2NC[C@@H]2CCCN2)c1 [Cpd 202] |  |  | 0.122 | 
37 | Cc1ccc(Oc2nc(-c3cncc(Cl)c3)ncc2NC[C@@H]2CCCN2)c(F)c1F [Cpd 190] |  |  | 0.222 | 
38 | COc1ccc(Oc2nc(-c3cncc(C#N)c3)ncc2N2CCC(N)CC2)cc1 [Cpd 333] |  | 1.116 | 0.664 | 0.118 µM
39 | COc1ccc(Oc2nc(-c3cncc(SC)c3)ncc2NC2CCCC(N)C2)cc1 (racemic) [Cpd 310] | 0.031 µM | 1.042 |  | 
40 | Cc1cc(Oc2nc(-c3cncc(F)c3)ncc2NC[C@@H]2CCCN2)ccc1F [Cpd 219] |  |  | 0.475 | > 1 µM
41 | COCCOc1ccc(Oc2nc(-c3cncc(OC)c3)ncc2NC[C@@H]2CCCN2)cc1 [Cpd 243] |  |  | 0.433 | 
42 | COc1ccc(Oc2nc(-c3cccnc3)ncc2NC2CCCC(N)C2)cc1 (single isomer, unassigned) [Cpd 307] | 0.011 µM | 1.191 | 0.880 | 
43 | COc1ccc(Oc2nc(-c3cccnc3)ncc2NC2CCCCC2N)cc1 (single isomer, unassigned) [Cpd 308] |  |  | 0.140 | 
44 | COc1ccc(Oc2nc(-c3cncc(C#N)c3)ncc2N2CCC[C@@H](N)C2)cc1 [Cpd 330] |  | 0.894 | 0.547 | 0.051 µM
45 | N#Cc1cncc(-c2ncc(NC[C@@H]3CCCN3)c(Oc3cccc(O)c3)n2)c1 [Cpd 231] | 0.005 µM | 1.113 | 1.159 | 
46 | Clc1cncc(-c2ncc(NC[C@@H]3CCCN3)c(Oc3ccccc3Cl)n2)c1 [Cpd 229] | 0.061 µM | 0.890 | 0.715 | 
47 | CC[C@@H]1CN(c2cnc(-c3cncc(OC)c3)nc2Oc2ccc(OC)cc2)CCN1 [Cpd 361] | 0.07 µM | 0.962 |  | 
48 | CCc1ccc(Oc2nc(-c3cncc(C#N)c3)ncc2NC[C@@H]2C[C@@H](F)CN2)cc1 [Cpd 195] |  | 1.119 | 0.477 | 0.194 µM
49 | COc1ccc(Oc2nc(-c3cncc(C#N)c3)ncc2N2CC[C@H](N)C2)cc1 [Cpd 328] |  |  | 0.377 | 
50 | N#Cc1cncc(-c2ncc(NC[C@@H]3CCCN3)c(Oc3ccc(CF)cc3)n2)c1 [Cpd 206] |  |  | 0.292 | 
51 | COc1ccc(Oc2nc(-c3cncc(C#N)c3)ncc2N[C@H]2CCCNC2)cc1 [Cpd 207] |  | 1.047 | 0.963 | 
52 | COc1ccc(Oc2nc(-c3cncc(F)c3)ncc2NC[C@@H]2C[C@@H](F)CN2)cc1 [Cpd 193] | 0.032 µM | 1.090 | 0.801 | 
53 | COc1ccc(Oc2nc(-c3cccnc3)ncc2NC[C@@H]2CCCN2)cc1C [Cpd 211] |  | 1.050 | 0.814 | 0.106 µM
54 | CCc1nc(C)c(CNc2cnc(-c3cncc(C#N)c3)nc2Oc2ccc(OC)cc2)[nH]1 [Cpd 287] |  |  | 0.640 | 

Source: patent US8513271B2, “Pyrimidine compounds as delta opioid receptor modulators” (Janssen Pharmaceutica, NV, priority 2009, dated 2013)
